Reference: patent US10645928B2, “Pesticidally active polycyclic derivatives with sulfur containing substituents” (Syngenta Participations AG, priority 2014, dated 2020)

Experiments:
Type in all cases: in vivo
[1] = test system: Spodoptera littoralis (Egyptian Cotton Leaf Worm); assay: Example B20: Spodoptera littoralis, compound in agar absorbed by lettuce roots, mortality; conditions: 144 h, test rate of 12.5 ppm, uptake by lettuce roots, Spodoptera eggs, 6 days after infestation
In short: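 Compound from a 10,000 ppm DMSO stock mixed into agar; lettuce grown on it for 7 days to take up compound via roots, then leaves cut into lid plate. Spodoptera eggs applied on humid blotting paper; mortality scored 6 days after infestation.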

[2] = test system: Tetranychus urticae (Two-Spotted Spider Mite); assay: Example B21: Tetranychus urticae, sprayed bean leaf discs, mortality; conditions: foliar, 192 h, application rate of 200 ppm, mixed population (mobile stages), 8 days after infestation
Protocol: Bean leaf discs on agar in 24-well microtiter plates were sprayed with aqueous test solutions prepared from 10,000 ppm DMSO stock solutions. After drying the leaf discs were infested with a mite population of mixed ages. The samples were assessed for mortality on mixed population (mobile stages) 8 days after infestation.

[3] = test system: Spodoptera littoralis (Egyptian Cotton Leaf Worm); assay: Example B14: Spodoptera littoralis, sprayed cotton leaf discs, anti-feeding effect; conditions: foliar, 72 h, application rate of 200 ppm, L1 larvae, 3 days after infestation
In short: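 Cotton leaf discs on agar sprayed with aqueous test solutions made from 10,000 ppm DMSO stocks, dried, then infested with five L1 larvae. Anti-feeding effect scored 3 days after infestation against untreated discs; control counted when anti-feedant effect exceeds untreated.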

[4] = test system: Spodoptera littoralis (Egyptian Cotton Leaf Worm); assay: Example B19: Spodoptera littoralis, compound in agar absorbed by lettuce roots, anti-feedant effect; conditions: 144 h, test rate of 12.5 ppm, uptake by lettuce roots, Spodoptera eggs, 6 days after infestation, read-out: anti-feeding
In short: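 Compound from DMSO stock mixed into agar; lettuce seedlings took it up via roots over 7 days, then cut leaves were infested with Spodoptera eggs. Anti-feedant effect scored 6 days after infestation relative to untreated samples.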

[5] = test system: Diabrotica balteata (Corn Root Worm); assay: Example B2: Diabrotica balteata, sprayed maize sprouts, mortality and growth inhibition; conditions: 96 h, application rate of 200 ppm, L2 larvae, 4 days after infestation, read-out: effect in at least one of the two categories (mortality or growth inhibition)
Protocol: Maize sprouts placed onto an agar layer in 24-well microtiter plates were treated with aqueous test solutions prepared from 10,000 ppm DMSO stock solutions by spraying. After drying, the plates were infested with L2 larvae (6 to 10 per well). The samples were assessed for mortality and growth inhibition in comparison to untreated samples 4 days after infestation.

[6] = test system: Spodoptera littoralis (Egyptian Cotton Leaf Worm); assay: Example B16: Spodoptera littoralis, sprayed cotton leaf discs, mortality; conditions: foliar, 72 h, application rate of 200 ppm, L1 larvae, 3 days after infestation
Protocol: Cotton leaf discs were placed onto agar in 24-well microtiter plates and sprayed with aqueous test solutions prepared from 10,000 ppm DMSO stock solutions. After drying the leaf discs were infested with five L1 larvae. The samples were assessed for mortality 3 days after infestation.

CCS(=O)(=O)c1cc(C(C#N)CCBr)cnc1-c1cn2cnc(C(F)(F)F)cc2n1 (stereo not drawn) [Compound P13, 4-bromo-2-[5-ethylsulfonyl-6-[7-(trifluoromethyl)imidazo[1,2-c]pyrimidin-2-yl]-3-pyridyl]butanenitrile]
≥ 80%: mortality at 12.5 ppm [1] | mortality at 200 ppm [2] | pest or weed control at 200 ppm [3] | pest or weed control at 12.5 ppm [4] | percent effect (mortality or growth inhibition) at 200 ppm [5] | mortality at 200 ppm [6]
